For series [1], the system named is primary microglia. The format is cell-based, rat. Particulars: 48 h, FIG. 12. The protocol: FIGS. 12A-E. Effects of acivicin on microglia, macrophage and whole blood cell numbers. a, Representative images showing morphology and density of primary microglia treated with vehicle or acivicin for 48 h stained with nuclei marker Hoechst or CellMask Red Whole Cell Stain. Quantification of the total number of microglia. Data are representative of one experiment with technical replicates (open symbols). b, Representative confocal images showing morphology and density of control- and acivicin-treated BMDMs treated for 24 h. Scale bar, 100 μm. Insets depict digitally zoomed in areas of regions of interest. Quantification of the total number of BMDMs in the field of view. […] Cell viability of single CD45^+ cells was assessed by Sytox blue live/dead nuclei stain. Quantification of percent cell viability of CD45^+ BMDMs treated with acivicin or left untreated. Data are from 2 independent experiments with n=4 mice per group (mean±s.d.). d, Quantification of complete blood count analysis of white blood cells (WBCs), red blood cells (RBC), platelets (PLT) (left) and composition of WBCs (right) of blood samples from healthy mice treated with saline or acivicin for 10 days. […] Quantification of total microglia cell numbers in healthy mice treated with acivicin or saline. […]
Image-based HTS of small molecule inhibitors of microglia activation. […] The plates were stored in PBS for readout by imaging.

Series [2] concerns human macrophages. In words: ROS production (DHE) in fibrin-stimulated human macrophages. The format is cell-based. To be noted: fibrin 24 h, 5 μM inhibitor, FIG. 6b. As to the method:
Human macrophage cultures. Human peripheral blood mononuclear cells (PBMCs) were purchased from AllCells, LLC (Alameda, Calif.). To differentiate PBMC into monocyte-derived macrophages, 2×10^6 PBMC/mL were plated in RPMI-1640 media supplemented with 10% FBS, 1% penicillin-streptomycin (Corning), and 50 ng/ml human M-CSF (300-25, Peprotech) in tissue-culture treated dishes (Corning). After 24 h, non-adherent cells were removed, and adherent cells were cultivated for 7-8 additional days at 37° C. in 5% CO2 to promote their full differentiation into macrophages. Oxidant detection with DHE. Intracellular concentrations of ROS were measured using dihydroethidium (DHE) as described (9). Cultured BMDMs or human macrophages were incubated in medium containing 5 μM DHE (Invitrogen) for 30 min Cells were plated on 96-well, black μ-clear-bottom microtiter plates (Greiner Bio-One) pre-coated with 25 μg/ml fibrin. For GGT inhibition, BMDMs or human macrophages were pre-incubated with 5 μM acivicin or GGsTop for 1 h, and the cells were plated on fibrin-coated 96-well plates as described above. PBS was used as vehicle control. Cells were then incubated for 24-48 h and fixed with 4% PFA for 10 min. The DHE fluorescence was detected at an excitation/emission wavelength of 518 nm/605 nm using a SpectraMax M5 microplate reader (Molecular Devices) with SoftMax Pro 5.2 software (Phoenix Technologies Ltd.).

Series [3] in a line: in vitro. Particulars: rat.
Series [4] in a line: Serum protein carbonyl content assay in MOG35-55 EAE mice. Particulars: FIG. 7g. In kind it is in vivo, mouse. As to the method: Protein carbonyl content assay. Blood was isolated from EAE mice via terminal cardiac puncture, and serum levels of protein carbonylation were measured with OxiSelect™ Protein Carbonyl ELISA (Cell Biolabs) according to the manufacturer's protocol. The absorbance at 450 nm was measured using a SpectraMax M5 microplate reader (Molecular Devices) with SoftMax Pro 5.2 software (Phoenix Technologies Ltd.).

Series [5] relates to chronic NOD MOG35-55 EAE. In words: Immunohistochemistry of spinal cord in chronic NOD MOG35-55 EAE. In kind it is in vivo, mouse.
The test system of series [6] is PLP139-151 EAE in SJL/J mice. Briefly: Relapsing PLP139-151 EAE in SJL/J mice, clinical scores. In kind it is in vivo, mouse. Particulars: therapeutic, daily from peak of initial paralytic episode, FIG. 7c.
The subject of series [7] is 2D2 T cells. Briefly: Antigen-specific T-cell proliferation (BrdU, 2D2 T cells with MOG35-55-pulsed BMDMs). In kind it is cell-based, mouse. To be noted: 5, 0.5 or 0.05 μM, FIG. 14G, H. The protocol:
(§1) T-cell proliferation assay. For antigen-specific T cell proliferation, näive CD4+ T cells were magnetically sorted from the TCR-transgenic 2D2 mice using naïve CD4+ T cell isolation kits (Miltenyi Biotec). […]. For non-antigen-specific T cell proliferation, naïve CD4^+ T cells were treated with acivicin and stimulated with mouse T-activator CD3/CD28 Dynabeads (Thermo Fisher Scientific) for 3 d. Cells were then fixed, permeabilized, and stained with FITC-conjugated anti-BrdU (BrdU Flow Kits, BD Biosciences).

Series [8] has as its system proinflammatory gene expression. In words: qRT-PCR of spinal cord extracts of MOG35-55 EAE mice. The format is in vivo, mouse. Particulars: FIG. 7h.
For series [9], the system named is primary rat microglia. Briefly: Cell toxicity (dead cells, size <150 μm2) in coated fibrin (cFib) assay.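 For Fibrin % cell toxicity: share of dead cells sized under 150 µm2 at 10 µM in fibrin-stimulated microglia HTS.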
The subject of series [10] is naïve CD4+ T cells. In words: Non-antigen-specific T-cell proliferation (anti-CD3/CD28). The format is cell-based, mouse. To be noted: 5, 0.5 or 0.05 μM, FIG. 14G, H. The protocol:
as §1

By IC50 is commonly meant the point on the concentration scale where inhibition reaches its midpoint. Low values mean greater potency, high ones weaker potency.

Turning to `N[C@H](C(=O)O)[C@@H]1CC(Cl)=NO1` [Acivicin, (2S)-2-amino-2-[(5S)-3-chloro-4,5-dihydro-1,2-oxazol-5-yl] acetic acid], in [1], the “microglia cell number in vitro” value is listed as “did not affect”. Also, the “ROS generation (DHE) in human macrophages” value in [2] was “decreased”. The same compound showed an IC50 in [3] of more than 20 µM. In addition, the “serum protein carbonyl content” value in series [4] is “markedly reduced”. In addition, in series [5] (chronic phase, FIG. 8c), the “demyelination (MBP)” value is reported as “reduced”. In [5] (chronic phase, FIG. 8d), the “NADPH oxidase subunit gp91-phox” value is reported as “reduced”, the “axonal damage (SMI-32)” value is given as “reduced” and the “inducible nitric oxide synthase (iNOS)” value was “reduced”. In addition, the “expression of GGT1” value in series [5] (mouse, in vivo) is listed as “reduced”. Further, the “clinical severity during relapses” value in series [6] is “suppressed”. The “encephalitogenic T cell proliferation (BrdU) with APCs” value in series [7] is on record as “suppressed”. Further, the proinflammatory gene expression result in series [8] is “markedly reduced”. For the same compound, the “cell toxicity in microglia dose response” value in [9] (<20 μM, FIG. 6a) is reported as “without cell toxicity”. In addition, in series [9] (primary microglia HTS, fibrin stimulation, decreased size (<150 μm^2) as marker of toxicity), the “Fibrin % cell toxicity” value is recorded as 2%. Besides, the “T cell proliferation (BrdU) without APCs, anti-CD3 and anti-CD28” value in [10] is “only in the presence of APCs”.

The values above are taken from patent US20210330611A1, “THERAPY FOR NEUROLOGICAL DISEASES/DISORDERS” (priority 2020, published 2021).
